This assay deals with T1, TKS1-Cpn (group II chaperonin from Thermococcus strain KS-1) (Thermococcus sp. JCM 11816, UniProt P61112, D263C/C366S).
T1 construct: gene thsA; full-length recombinant chaperonin, purified to homogeneity, double-ring homo-oligomer
In words: diffracted X-ray tracking (DXT), single molecule. As to conditions: 2 mM ATP; MOPS pH 7.0, 100 mM KCl, 5 mM MgCl2, about 60 °C; immobilised on gold, gold nanocrystal label. It is filed as binding.

T1 sequence (P61112 whole entry D263C/C366S): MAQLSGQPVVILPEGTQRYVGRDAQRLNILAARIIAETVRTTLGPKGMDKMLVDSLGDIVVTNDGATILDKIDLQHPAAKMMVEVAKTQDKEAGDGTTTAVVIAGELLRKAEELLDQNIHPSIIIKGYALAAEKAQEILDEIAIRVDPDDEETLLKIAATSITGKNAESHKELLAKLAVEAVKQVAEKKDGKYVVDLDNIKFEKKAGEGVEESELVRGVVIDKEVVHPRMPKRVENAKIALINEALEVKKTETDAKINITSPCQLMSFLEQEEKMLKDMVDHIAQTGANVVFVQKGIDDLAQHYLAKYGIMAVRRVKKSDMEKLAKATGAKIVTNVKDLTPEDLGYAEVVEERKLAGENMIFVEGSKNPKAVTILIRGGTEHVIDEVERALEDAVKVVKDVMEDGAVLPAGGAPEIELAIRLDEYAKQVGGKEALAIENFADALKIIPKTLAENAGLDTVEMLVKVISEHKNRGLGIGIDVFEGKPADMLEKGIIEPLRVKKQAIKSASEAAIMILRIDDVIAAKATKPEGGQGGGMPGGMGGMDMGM

As for `Nc1ncnc2c1ncn2[C@@H]1O[C@H](COP(=O)(O)OP(=O)(O)OP(=O)(O)O)[C@@H](O)[C@H]1O` [ATP], the “diffracted X-ray tracking (DXT), single molecule” value is “Angular displacement in the χ direction was clearly activated by the addition of ATP”.

The values above are taken from publication PMC3666759, “ATP Dependent Rotational Motion of Group II Chaperonin Observed by X-ray Single Molecule Tracking” (PLoS ONE, 2013).
